# System: Staphylococcus aureus USA 300 (LAC)
# Assay: MIC assay
# Type: cell-based
# Method: MIC determinations and killing assays were performed in Mueller Hinton Broth (MHB; Roth, Karlsruhe, Germany).
# S. aureus RN4220, S. aureus USA300 (LAC), S. aureus USA300 (NRS384), S. aureus SA113, S. aureus Mu50, E. coli DH5α and P. aeruginosa PAO1 were grown overnight in MHB. […] All strains were incubated at 37° C. under continuous shaking. Early log-phase grown bacteria were adjusted in MHB to 1×10^6 cells/well in microtiter plates (MTP), mixed with varying concentrations of the antibiotic and incubated at 37° C. for 24 h under continuous shaking. […] The assays were performed in 96-well microtiter plates.
# MIC assays for the antibiotics used in this study were performed as described above. […] Fresh MHB was inoculated 1:10,000 with an overnight culture of S. aureus USA300 LAC and was incubated at 37° C. under continuous shaking. Cells were grown to early log phase, adjusted to 1×10^6 cells/mL, and dispensed into 96-well MTPs with 100 μL per well. […] After 24 h incubation at 37° C. under continuous shaking, growth was determined with a microplate reader at an OD600 and cells from the second highest concentration of 0.25×MIC, 0.5×MIC, 1×MIC, 1.5×MIC, 2×MIC and 4×MIC from the appropriate antibiotic.
smiles,measurement,value
CO[C@H]1/C=C/O[C@@]2(C)Oc3c(C)c(O)c4c(O)c(c(/C=N/N5CCN(C)CC5)c(O)c4c3C2=O)NC(=O)/C(C)=C\C=C\[C@H](C)[C@H](O)[C@@H](C)[C@@H](O)[C@@H](C)[C@H](OC(C)=O)[C@@H]1C [rifampicin],1×MIC against S. aureus USA300,0.01 µg/mL

# Reference: US10774113B2, “Anti-infective compound” (priority 2015, dated 2020)
